In patent US4829069A, “4-Thioquinazoline derivatives as antiulcer agents” (Nisshin Flour Milling Co., Ltd., priority 1987, dated 1989):

Key:
Toxicity, LD50 (P.O.) = details: in vivo, po
[1] = system: indomethacin induced ulcer; experiment: Antiulcer activity: suppression of indomethacin induced ulcer; type: in vivo, mouse (ddy series male mice); details: 100 mg/kg to the stomach 30 minutes before 20 mg/kg indomethacin p.o.; mean ulcer index vs control group, 4 hours after indomethacin
Method: The antiulcer activity of the compounds of this invention was determined by the following method. Four-week-old ddy series male mice were used as the test animals after they were fasted for 24 hours. Each test compound suspended in a 1% gum arabic solution was administered to the stomach of each mouse at a dose of 100 mg/kg, and then, after 30 minutes, 20 mg/kg of indomethacin was administered orally. Four hours after the administration of indomethacin, the stomach of mouse was extirpated and the length of ulcers was measured. Then, the ulcer index was determined by the total sum of the scores as calculated in Table 1. The mean ulcer index of each group was calculated and the suppression rate against the control group in terms of difference in the mean ulcer index was determined.

[2] = background; cited from earlier work

Row | SMILES | reversion test (Reversion test) | LD50 (Toxicity, LD50 (P.O.)) [mg/kg] | Suppression rate of indomethacin induced ulcer, 100 mg/kg, p.o. [1] | side effects [2]
1 | c1ccc(CSc2ncnc3ccccc23)nc1 [4-(2-Pyridylmethylthio)-quinazoline] | negative | > 1000 | 94 | 
2 | Cc1ccnc(CSc2ncnc3ccccc23)c1 [4-[(4-Methylpyridin-2-yl)methylthio]-quinazoline] |  |  | 70 | 
3 | COc1cc(CSc2ncnc3ccccc23)ncc1C [4-[(4-Methoxy-5-methylpyridin-2-yl)methylthio]-quinazoline] |  |  | 81 | 
4 | c1ccc2nc(CSc3ncnc4ccccc34)ccc2c1 [4-(2-Quinolylmethylthio)-quinazoline] |  |  | 70 | 
5 | c1ccc2c(SCc3ccncc3)ncnc2c1 [4-(4-Pyridylmethylthio)-quinazoline] |  |  | 92 | 
6 | CN/C(=N/CCSCc1nc[nH]c1C)NC#N [Cimetidine, reference compound] |  |  | 40 | gynecomatism
7 | CCN(CC)CCSc1ncnc2ccccc12 [4-[2-(Diethylamino)ethylthio]-quinazoline] |  |  | 49 | 
